Laboratory results as given in BindingDB's records for doi:10.1016/0960-894X(96)00376-9 (1996).

Experiment: Binding affinity against human Alpha-1b adrenergic receptor

**Q.** Which Ki does the source give for O=C(c1nc(-c2c[nH]c3ccccc23)c[nH]1)c1c[nH]c2cc(O)ccc12 here?
**A.** 1150 nM

**Q.** Which Ki does the source give for Brc1ccc2c(-c3c[nH]c(-c4c[nH]c5cc(Br)ccc45)n3)c[nH]c2c1 [Nortopsentin A] here?
**A.** 520 nM

**Q.** Which Ki does the source give for Brc1ccc2c(-c3nc(-c4c[nH]c5ccccc45)c[nH]3)c[nH]c2c1 [Nortopsentin B] here?
**A.** 130 nM

**Q.** With Brc1ccc2c(-c3c[nH]c(-c4c[nH]c5ccccc45)n3)c[nH]c2c1 [Nortopsentin C] as the compound, how does the Ki read?
**A.** 170 nM

**Q.** For O=C(c1nc(-c2c[nH]c3cc(Br)ccc23)c[nH]1)c1c[nH]c2cc(O)ccc12 [topsentin B2], which Ki is on record?
**A.** 740 nM
